Source: US8741967B2, “Use of unsaturated sphingosine compounds as chemotherapeutic agents for the treatment of cancer” (Children's Hospital & Research Center at Oakland, priority 2007, dated 2014)

Assays:
[1] = biological target: T1, murine Sphingosine Kinase 1 (SK1) (Mus musculus, UniProt Q8CI15); experiment: Phosphorylation by SK1 in extracts of HEK293 cells overexpressing SK1 (HPLC); assay type: biochemical; conditions: cell extracts preincubated for 10 minutes
T1 construct: expressed in transfected cells; host or cells: HEK293
T1 sequence (Q8CI15 whole entry): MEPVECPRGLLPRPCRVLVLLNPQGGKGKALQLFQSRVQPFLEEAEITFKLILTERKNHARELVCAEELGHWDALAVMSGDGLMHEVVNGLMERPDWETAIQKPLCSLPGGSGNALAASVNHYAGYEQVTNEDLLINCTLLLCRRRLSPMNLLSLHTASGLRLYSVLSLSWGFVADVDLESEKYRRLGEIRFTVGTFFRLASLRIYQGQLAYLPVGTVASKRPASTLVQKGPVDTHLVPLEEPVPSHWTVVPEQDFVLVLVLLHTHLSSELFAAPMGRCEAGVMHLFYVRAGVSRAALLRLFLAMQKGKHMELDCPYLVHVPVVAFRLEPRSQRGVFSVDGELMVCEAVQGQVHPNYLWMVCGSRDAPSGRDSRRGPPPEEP
Protocol: The formed phosphorylated sphingoid base products were measured by HPLC.
In order to test if preincubation with C14-So or C14Δ4:6Sd has an inhibitory effect on the ability of the SK enzyme to phosphorylate the C17-So compound, cell extracts were preincubated for 10 minutes with either C14-So or C14Δ4:6Sd followed by C17-So.

HCT116 cells = experiment: Viability of HCT116 colon cancer cells; assay type: cell-based; conditions: Homo sapiens, HCT-116; HCT116, 10 μM, 24 hours; read-out: viability, % of controls
Protocol: The human colon cancer cell lines, HT29, SW480, HCT116 and DLD1 were treated with 10 μM C14Δ4:6Sd (also referred to herein as 2-aminotetradeca-4,6-diene-1,3-diol) and viability was determined at 24 hours.

4EBP = 4EBP phosphorylation by western blotting in HT29 cells; assay type: cell-based, human; conditions: HT29, 10 μM, 0.5 to 24 hours
Protocol: (§1) To address the possibility that sphingadienes might promote cell death by inhibiting the PI3K/AKT pathway, the effect of sphingadienes on phosphorylation of AKT, PTEN, and the AKT substrate 4EBP, which is a regulator of protein translation, was evaluated using immunoblotting of whole cell extracts.
(§2) HT29 cells were incubated with 10 μM C14Δ4:6Sd for 0.5, 1, 3, 6 and 24 hours and the level of Akt and 4EBP phosphorylation was evaluated at each time point by western blotting. […] The ratios of phosphorylated Akt to total Akt and of phosphorylated 4EBP to total 4EBP, were quantified by densitometry using ImageJ software (ImageJ is a public domain Java image processing program inspired by NIH Image; available at rsbweb.nih.gov/ij/index.html) and are shown in FIG. 7A and FIG. 7B, respectively.
(§3) In an additional experiment, HT29 cells were treated for various time periods with 10 μM C14Δ4:6Sd or C18Δ4:8Sd and the level of phosphorylation of Akt and 4EBP was evaluated by western blotting at 0.5, 1.0 and 3.0 hours. The results confirmed that sphingadienes inhibited phosphorylation of Akt and 4EBP, even at 0.5 hours of exposure, thus inhibiting signaling through Akt and 4EBP.

ApcMin/+ mice = experiment: Intestinal polyps in ApcMin/+ mice; assay type: in vivo; conditions: gavage 2.5 mg/day, day 10, versus vehicle control
Protocol: Murine experiments were performed to investigate the in vivo effect of C14Δ4:6Sd on the development of polyps in intestinal tissue using an established animal model system having an inherited genetic defect underlying spontaneous multiple intestinal neoplasia (Min) (Polakis, 1997 Biochim Biophys. Acta. 1332:F127; Kucherlapati et al., 2001 Semin. Canc. Biol. 11:219; Sansom et al., 2004 Genes Dev. 18:1385). Ten 12 week-old male ApcMin/+ mice (available from Jackson Laboratory, Bar Harbor, Me.) were administered by gavage 2.5 mg/day C14Δ4:6Sd and ten mice received vehicle control. Mice were euthanized by CO2 asphyxiation and intestinal tissues harvested at day 10. Gross polyps were counted and measured (diameter). […] Polyps were further analyzed for phosphorylated 4EBP by western blotting and it was confirmed that sphingadienes inhibited 4EBP phosphorylation in vivo.

Akt = Akt phosphorylation by western blotting in HT29 cells; assay type: cell-based, human; conditions: HT29, 10 μM, 0.5 to 24 hours
Protocol: as §1, §2, §3

SMILES: CCCCCCC/C=C/C=C/C(O)C(N)CO (stereo not drawn) [C14Δ4:6Sd, 2-aminotetradeca-4,6-diene-1,3-diol]
- inhibitory effect on phosphorylation of C17-So by SK [1]: no inhibitory effect was observed
- viability at 10 µM (HCT116 cells): > 50%
- phosphorylation of 4EBP (4EBP): inhibited
- size (diameter) of intestinal polyps (ApcMin/+ mice): reduced the size
- number of intestinal polyps (ApcMin/+ mice; p<0.0027): significantly reduced
- phosphorylation of Akt (Akt): inhibited
